Data as given in patent US5506115A, “Reagent and method for determining activity of herpes protease” (G. D. Searle & Co., priority 1994, dated 1996).
Where a SMILES comes first, the peptide text is derived from it. The star is where a group is joined. Dabcyl = CN(C)c1ccc(N=Nc2ccc(C(=O)*)cc2)cc1; EDANS = O=S(=O)(O)c1cccc2c(NCCN*)cccc12; GABA = NCCCC(=O)O

Molecular target: T1, CMV assemblin (Human cytomegalovirus, UniProt P16753)
T1 construct: a DNA construction encoding the protease domain of the UL 80 open reading frame; His6 (N); made in house; host or cells: E. coli
T1 sequence (P16753 1-256): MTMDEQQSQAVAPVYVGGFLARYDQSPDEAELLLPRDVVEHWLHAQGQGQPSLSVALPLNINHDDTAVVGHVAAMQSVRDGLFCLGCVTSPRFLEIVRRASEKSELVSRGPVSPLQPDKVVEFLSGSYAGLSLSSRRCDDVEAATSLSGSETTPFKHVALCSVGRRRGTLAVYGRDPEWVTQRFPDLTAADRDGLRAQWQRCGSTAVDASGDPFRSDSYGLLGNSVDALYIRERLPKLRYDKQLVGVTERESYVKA
Test: Hydrolysis of fluorogenic substrate by CMV assemblin (fluorescence time course, FIG. 2)
Assay type: biochemical
Conditions: 10 μM DE1, protease added; 340 nm excitation, 480 nm emission; within 30 minutes
Method: The fluorometric assay developed to incorporate the substrate compounds of the invention is a method for the determination of a herpesvirus protease and inhibitors of a herpesvirus protease, e.g. a CMV protease (also known as assemblin) encoded by UL 80, which comprises placing a known amount of the herpesvirus protease in the wells of a "Microlite 1"96 well plate (Dynatek Laboratories, Inc.), adding a known amount of the substrate at 22° C., measuring the change in fluorescence with time and determining the molar velocity of the herpesvirus protease by comparing against a standard curve which relates changes in fluorescent intensity to changes in concentration of product. Potential inhibitors of the protease action can be added to the well to observe their effect on the protease cleavage activity.
The arrow indicates the addition of protease to 10 μM DE1 [SEQ ID NO:34]. […] Fluorescence magnitude is plotted versus time.
An assay was developed for screening potential herpesvirus protease inhibitors utilizing the substrates of the invention. Recombinant HCMV protease was purified from E. coli expressing a DNA construction encoding the protease domain of the UL 80 open reading frame of human cytomegalovirus strain AD169. The construction also encoded six additional histidine residues at the amino terminus of the protease. […]

CC(C)C[C@H](NC(=O)[C@H](CCCNC(=N)N)NC(=O)[C@H](C)NC(=O)[C@H](CO)NC(=O)[C@H](C)NC(=O)[C@H](CC(N)=O)NC(=O)[C@@H](NC(=O)[C@@H](NC(=O)CCCNC(=O)c1ccc(N=Nc2ccc(N(C)C)cc2)cc1)C(C)C)C(C)C)C(=O)NCCNc1cccc2c(S(=O)(=O)O)cccc12 [DE1, DABCYL-γ-Abu-Val-Val-Asn-Ala-Ser-Ala-Arg-Leu-EDANS] ({Dabcyl-GABA}-VVNASARL-{EDANS})
increase in fluorescence emission on cleavage of the substrate: 10 fold
